Where “and” joins values, the source holds several entries; their conditions need not be identical. Equal values may be shown once.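 Each compound was tested at five concentrations against cells in 96-well plates for 48 hours. Here, GI50 denotes the concentration required for 50% inhibition of growth. TGI is the concentration that stops growth completely.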
Key:
Assay in all cases: DTP human tumour cell line panel, 48 h
U251 CNS = tested on: U251 CNS
OVCAR-3 ovarian = tested on: OVCAR-3 ovarian
TK-10 renal = tested on: TK-10 renal
SK-MEL-5 melanoma = tested on: SK-MEL-5 melanoma
SF-539 CNS = tested on: SF-539 CNS
SK-OV-3 ovarian = tested on: SK-OV-3 ovarian
HCT-116 colon = tested on: HCT-116 colon
MOLT-4 leukemia = tested on: MOLT-4 leukemia
OVCAR-4 ovarian = tested on: OVCAR-4 ovarian
ACHN renal = tested on: ACHN renal

| Structure (SMILES) | TGI (U251 CNS) | TGI (OVCAR-3 ovarian) | TGI (TK-10 renal) [µM] | TGI (SK-MEL-5 melanoma) | TGI (SF-539 CNS) [µM] | TGI (SK-OV-3 ovarian) [µM] | TGI (HCT-116 colon) | TGI (MOLT-4 leukemia) | TGI (OVCAR-4 ovarian) [µM] | TGI (ACHN renal) | GI50 (U251 CNS) [µM] | GI50 (OVCAR-3 ovarian) [µM] | GI50 (TK-10 renal) | GI50 (SF-539 CNS) [µM] | GI50 (SK-OV-3 ovarian) [µM] | GI50 (HCT-116 colon) [µM] | GI50 (MOLT-4 leukemia) | GI50 (OVCAR-4 ovarian) [µM] | GI50 (ACHN renal) | GI50 (SK-MEL-5 melanoma) [µM] |
| --- | --- | --- | --- | --- | --- | --- | --- | --- | --- | --- | --- | --- | --- | --- | --- | --- | --- | --- | --- | --- |
| OC1C=C2C3CN(Cc4cc5c(cc43)OCO5)[C@H]2C[C@@H]1O (some centres undefined) | 50.4 µM | > 100 µM | 39.3 | 16.4 µM | > 100 | > 100 | 25.1 µM | > 100 µM | 25.9 | 33.1 µM |  |  |  |  |  |  |  |  |  |  |
| O=C1CCC(NC(=O)Cc2ccc(O)cc2)C(=O)N1 (centres undefined) | > 2500 µM | > 2500 µM | > 2500 | > 2500 µM |  | > 2500 | > 2500 µM |  | > 2500 | > 2500 µM |  |  |  |  |  |  |  |  |  |  |
| O=C(O)C(Cc1ccccc1)N1C(=O)c2ccccc2C1=O (centres undefined) | > 100 µM | > 100 µM | > 100 | > 100 µM | > 100 | > 100 | > 100 µM | > 100 µM | > 100 | > 100 µM |  |  |  |  |  |  |  |  |  |  |
| N=C(N)C(N=Nc1ccccc1)C(=N)N (centres undefined) | > 100 µM | > 100 µM | > 100 | > 100 µM | 38.5 | > 100 | > 100 µM | 99.3 µM | > 100 | > 100 µM |  |  |  |  |  |  |  |  |  |  |
| O=C1CC(N2C(=O)/C(=C/C(Cl)=C\c3ccc([N+](=O)[O-])cc3)SC2=S)C(=O)N1c1ccc(Cl)cc1 (centres undefined) | 2.47 µM | 2.62 µM | 8.63 |  | 4.14 | > 100 | 3.04 µM | 13.4 µM | > 100 |  | 0.478 | 0.721 | 2.79 µM | 1.69 | 3.56 | 1.35 | 0.596 µM | 5.55 |  |  |
| N#CCc1[nH]nc2nc(SCc3ccccc3)nc(N3CCCCC3)c12 | 35.2 µM | 37.4 µM | 40.5 | 32.8 µM | 37.8 | 45.7 | 32.4 µM | 37.9 µM | 36.4 | 41.5 µM |  |  |  |  |  |  |  |  |  |  |
| CCn1cc(C(=O)O)c(=O)c2cc(F)c(N3CCN(Cn4c(O)c(N=NC(=O)c5ccncc5)c5cc(Cl)ccc54)CC3)cc21 | 94.4 µM | > 100 µM | 71.3 | > 100 µM | 63.1 | 61.3 | > 100 µM | 36 µM | > 100 | > 100 µM |  |  |  |  |  |  |  |  |  |  |
| O=C1c2ccccc2-c2ccc(O)cc21 | 70.3 µM |  | 49.5 | 45.4 µM | 52.8 |  | > 100 µM | 44.4 µM | 44.2 | 33.2 µM |  |  |  |  |  |  |  |  |  |  |
| C=C1C(C2(C)C=CC(=O)OC3(C)COC(=O)CC32)C(OC=O)C(OC(=O)C(O)C(C)CC)C2(C)C(c3ccoc3)CC(OC(C)=O)C12O (centres undefined) | > 100 µM | > 100 µM | > 100 | > 100 µM | > 100 | > 100 | > 100 µM | > 100 µM |  | > 100 µM |  |  |  |  |  |  |  |  |  |  |
| O=c1c2c([nH]c3nccn13)CCCC2 | > 10 µM | > 10 µM | > 10 | > 10 µM | > 10 | > 10 | > 10 µM | > 10 µM | > 10 | > 10 µM |  |  |  |  |  |  |  |  |  |  |
| CC(=O)C1=C(O)C2(O)C(=O)c3c(c(C)c4ccc(C)c(O)c4c3O)CC2C(N)C1=O (centres undefined) | 7.82 µM | 13.2 µM | 8.86 | 3.85 µM | 14.8 | 12.6 | 14 µM | 8.86 µM | 19 | 7.19 µM |  |  |  |  |  |  |  |  |  |  |
| CCC(C)C(NC(=O)C(CCCCN)NC(=O)C(NC(=O)C(CCC(N)=O)NC(=O)C(CCCNC(=N)N)NC(C)=O)C(C)CC)C(=O)NC(Cc1c[nH]c2ccccc12)C(=O)NC(Cc1ccccc1)C(=O)NC(CCC(N)=O)C(=O)NC(CC(N)=O)C(=O)NC(CCCNC(=N)N)C(=O)NC(CCCNC(=N)N)C(=O)NC(CCSC)C(=O)NC(CCCCN)C(=O)NC(Cc1c[nH]c2ccccc12)C(=O)NC(CCCCN)C(=O)NC(CCCCN)C(N)=O (centres undefined) | > 50 µM | > 50 µM | > 50 | > 50 µM | > 50 | > 50 | > 50 µM | > 50 µM | > 50 | > 50 µM |  |  |  |  |  |  |  |  |  |  |
| O=C(NN1C(=O)/C(=C/c2ccc(Cl)cc2)N=C1c1ccccc1)c1c(Cl)c(Cl)c(Cl)c(Cl)c1-c1nc2ccccc2[nH]1 |  | > 100 µM |  | > 100 µM | > 100 | > 100 | 45.2 µM | > 100 µM |  | 75.3 µM |  |  |  |  |  |  |  |  |  |  |
| Cc1c(Cl)c(=O)oc2cc(OCC(=O)c3ccccc3)ccc12 | > 100 µM | > 100 µM | > 100 | > 100 µM | > 100 | > 100 |  | > 100 µM | > 100 | > 100 µM |  |  |  |  |  |  |  |  |  |  |
| C[N+]1(C)C2CCC1CC(OC(=O)C(CO)c1ccccc1)C2 (centres undefined) | > 100 µM | > 100 µM | > 100 | > 100 µM | > 100 | > 100 | > 100 µM | > 100 µM | > 100 | > 100 µM |  |  |  |  |  |  |  |  |  |  |
| O=C1OC(c2ccccc2)=N/C1=C/c1cccs1 | > 100 µM | > 100 µM | > 100 |  | > 100 | > 100 |  | 41.9 µM | > 100 | > 100 µM |  |  |  |  |  |  |  |  |  |  |
| Cc1nc(Cl)c(C)c(Cl)n1 | > 100 µM | > 100 µM | > 100 | > 100 µM | > 100 | > 100 | > 100 µM | > 100 µM | > 100 | > 100 µM |  |  |  |  |  |  |  |  |  |  |
| CC(=O)C1(c2ccccc2)CCCN(C)CC1 (centres undefined) | > 100 µM | > 100 µM | > 100 | > 100 µM |  | > 100 | > 100 µM | > 100 µM | > 100 |  |  |  |  |  |  |  |  |  |  |  |
| Cc1c(N)nc([C@H](CC(N)=O)NC[C@H](N)C(N)=O)nc1C(=O)N[C@H](C(=O)N[C@H](C)[C@@H](O)[C@H](C)C(=O)N[C@H](C(=O)NCCc1nc(-c2nc(C(=O)NCCC[S+](C)C)cs2)cs1)[C@@H](C)O)C(OC1OC(CO)C(O)C(O)C1OC1OC(CO)C(O)C(OC(N)=O)C1O)c1cnc[nH]1 (some centres undefined) |  | 29 µM [middle of 4 runs] |  | 16.9 µM [middle of 4 runs] |  |  | 20.9 µM [middle of 4 runs] | 13.1 µM and 2.22 µM and 4.41 µM |  | 0.343 µM and 0.34 µM and 1.03 µM |  |  | 2.36 µM and 20.4 µM |  |  |  | 0.204 µM and 0.613 µM |  | 0.0135 µM and 0.0134 µM |  |
| O=C1CC(n2cccc2)c2cc(Br)sc21 (centres undefined) | > 100 µM | > 100 µM | > 100 | > 100 µM | > 100 | > 100 | > 100 µM | 87 µM | > 100 | > 100 µM |  |  |  |  |  |  |  |  |  |  |
| CN1CCC23c4ccccc4NC1C21CCN(C)C3Nc2ccccc21 | > 375 µM | > 375 µM |  | > 174 µM | > 375 | > 375 | > 375 µM | > 165 µM | > 375 |  |  |  |  |  |  |  |  |  |  |  |
| Cc1c2c(cc3c1[nH]c1ccccc13)C(c1ccc(F)cc1)=NCC2 | 5.11 µM | 2.93 µM |  | 4.83 µM | 2.77 | 4.45 | 5.41 µM | 5.34 µM | 3.12 |  |  |  |  |  |  |  |  |  |  |  |
| OC(c1ccc(-c2ccccc2)cc1)(c1ccc(-c2ccccc2)cc1)c1ccc(-c2ccccc2)cc1 | > 100 µM | > 100 µM | > 100 | > 100 µM |  | > 100 | > 100 µM | > 100 µM | > 100 | > 100 µM |  |  |  |  |  |  |  |  |  |  |
| CCCCC1Cc2cc(OC)ccc2-c2nc3cc(OC)ccc3n21 (centres undefined) (tested in a mixture with another compound) | 28.3 µM | 29.8 µM | 35.5 | 27.4 µM | 29.7 | 26.4 | 22.8 µM | 37 µM | 18.9 | 28.4 µM |  |  |  |  |  |  |  |  |  |  |
| COC1(OC)C[C@H](C)[C@@]23O[C@]24c2cc(O)c5c(c2N[C@H]3C#C/C=C\C#C[C@]14O)C(=O)c1ccccc1C5=O | 0.0421 µM and 0.0705 µM | 0.77 µM | 0.401 | 0.0222 µM and 0.00891 µM | 0.00304 | 0.0217 | 0.148 µM | < 0.001 µM | 4.2 |  | 0.00251 |  |  | < 0.001 |  |  | < 0.001 µM |  |  | 0.00172 |
| C=CCOCCCC(=O)C(=[N+]=[N-])C(=O)OC | > 100 µM | > 100 µM | > 100 | > 100 µM | > 100 | > 100 | > 100 µM | > 100 µM | > 100 | > 100 µM |  |  |  |  |  |  |  |  |  |  |
| O=C1c2scnc2-c2nccc3c2c1nc1ccccc13 |  | > 100 µM |  |  | 1.54 | 23.4 |  | > 100 µM | 2.92 | 2.15 µM |  |  |  |  |  |  |  |  |  |  |
| Cc1cc(C)n(C(=O)C(C)Sc2nnc(SC(C)C(=O)n3nc(C)cc3C)s2)n1 (centres undefined) | > 100 µM | > 100 µM | > 100 | > 100 µM |  | > 100 | > 100 µM | > 100 µM | > 100 | > 100 µM |  |  |  |  |  |  |  |  |  |  |
